Results: ChEMBL document CHEMBL1122681, “(Acylaryloxy)acetic acid diuretics. 5. [(2-Alkyl- and 2,2-disubstituted-1,3-dioxo-5-indanyl)oxy]acetic acids” (J Med Chem, 1984)

Columns and labels:
[1] = volume of urine at 9 mg/kg; assay type: ADME, organism-based; design: dose 9 mg/kg; conditions: in vivo
Rattus norvegicus [2] = assay: Compound was evaluated for diuretic activity administered orally in female rats measured as milliequivalents of K+x 100 / cage at 3 mg/kg; assay type: functional, Urine; conditions: route oral
[3] = volume of urine at 3 mg/kg; assay type: ADME, organism-based; design: dose 3 mg/kg; conditions: in vivo
Pan troglodytes [4] = assay: Compound was evaluated for diuretic activity in chimpanzee measured as increase in volume of urine at 1 mg/kg; assay type: functional
Canis familiaris [5] = assay: Compound was evaluated for diuretic activity, administered orally in female mongrel dogs (5 mg/kg) measured as milliequivalents of Cl-; assay type: functional, Canis lupus familiaris, Urine
Pan troglodytes [6] = assay: Compound was evaluated for diuretic activity in chimpanzee measured as increase in the number of microequivalents of K+ /min at 1 mg/kg; assay type: functional, Urine
Canis familiaris [7] = assay: Compound was evaluated for diuretic activity, in female mongrel dogs by measuring volume of urine, after iv administration of 5 mg/kg (control/compound treatment results) Control = 2; assay type: ADME, organism-based, Canis lupus familiaris; design: dose 5 mg/kg, route intravenous; conditions: dog, in vivo
Pan troglodytes [8] = assay: Compound was evaluated for diuretic activity in chimpanzee measured as increase in the number of microequivalents of Cl- electrolyte/min at 1 mg/kg; assay type: functional, Urine
Rattus norvegicus [9] = assay: Compound was evaluated for diuretic activity administered orally in female rats measured as milliequivalents of K+x 100 / cage at 81 mg/kg; assay type: functional, Urine; conditions: route oral
Canis familiaris [10] = species: Canis familiaris; assay: volume of urine in dog; assay type: ADME, organism-based, Canis lupus familiaris; conditions: in vivo
Pan troglodytes [11] = assay: Compound was evaluated for diuretic activity in chimpanzee measured as clearance of […] and urate after peroral administration of 5 mg/kg; assay type: functional, Urine; conditions: route oral
Rattus norvegicus [12] = assay: Compound was evaluated for diuretic activity administered orally in female rats measured as milliequivalents of Na+x 100 / cage at 81 mg/kg; assay type: functional, Urine; conditions: route oral
Rattus norvegicus [13] = assay: Compound was evaluated for diuretic activity administered orally in female rats measured as milliequivalents of Na+x 100 / cage at 9 mg/kg; assay type: functional, Urine; conditions: route oral
Pan troglodytes [14] = assay: Compound was evaluated for diuretic activity in chimpanzee measured as increase in the number of microequivalents of Cl- electrolyte/min at 5 mg/kg; assay type: functional, Urine
Canis familiaris [15] = assay: Compound was evaluated for diuretic activity, administered orally in female mongrel dogs (5 mg/kg) measured as milliequivalents of K; assay type: functional, Canis lupus familiaris, Urine
Canis familiaris [16] = assay: Compound was evaluated for diuretic activity, in female mongrel dogs by measuring amount of Na+ in urine after iv administration of 5 mg/kg (control/compound treatment results) Control = 107; assay type: functional, Canis lupus familiaris
Rattus norvegicus [17] = assay: Compound was evaluated for diuretic activity administered orally in female rats measured as milliequivalents of Cl-x 100 / cage at 3 mg/kg; assay type: functional, Urine; conditions: route oral
Canis familiaris [18] = assay: Compound was evaluated for diuretic activity, administered orally in female mongrel dogs (5 mg/kg) measured as milliequivalents of Na; assay type: functional, Canis lupus familiaris, Urine
Rattus norvegicus [19] = assay: Compound was evaluated for diuretic activity administered orally in female rats measured as milliequivalents of Na+x 100 / cage at 27 mg/kg; assay type: functional, Urine; conditions: route oral
[20] = volume of urine at 27 mg/kg; assay type: ADME, organism-based; design: dose 27 mg/kg; conditions: in vivo
Rattus norvegicus [21] = assay: Compound was evaluated for diuretic activity administered orally in female rats measured as milliequivalents of K+x 100 / cage at 9 mg/kg; assay type: functional, Urine; conditions: route oral
Rattus norvegicus [22] = assay: Compound was evaluated for diuretic activity administered orally in female rats measured as milliequivalents of Cl-x 100 / cage at 9 mg/kg; assay type: functional, Urine; conditions: route oral
Canis familiaris [23] = assay: Compound was evaluated for diuretic activity, in female mongrel dogs by measuring amount of K+ in urine after iv administration of 5 mg/kg (control/compound treatment results) Control = 11; assay type: functional, Canis lupus familiaris
Pan troglodytes [24] = assay: Compound was evaluated for diuretic activity in chimpanzee measured as increase in the number of microequivalents of K+ /min at 5 mg/kg; assay type: functional, Urine
Rattus norvegicus [25] = assay: Compound was evaluated for diuretic activity administered orally in female rats measured as milliequivalents of Cl-x 100 / cage at 81 mg/kg; assay type: functional, Urine; conditions: route oral
Rattus norvegicus [26] = assay: Compound was evaluated for diuretic activity administered orally in female rats measured as milliequivalents of Cl-+x 100 / cage at 27 mg/kg; assay type: functional, Urine; conditions: route oral
Rattus norvegicus [27] = assay: Compound was evaluated for diuretic activity administered orally in female rats measured as milliequivalents of K+x 100 / cage at 27 mg/kg; assay type: functional, Urine; conditions: route oral
Pan troglodytes [28] = assay: Compound was evaluated for diuretic activity in chimpanzee measured as increase in the number of microequivalents of Na+ /min at 1 mg/kg; assay type: functional, Urine
[29] = volume of urine at 81 mg/kg; assay type: ADME, organism-based; design: dose 81 mg/kg; conditions: in vivo
Canis familiaris [30] = assay: Compound was evaluated for diuretic activity, in female mongrel dogs by measuring amount of Cl- in urine after iv administration of 5 mg/kg (control/compound treatment results) Control = 62; assay type: functional, Canis lupus familiaris
Pan troglodytes [31] = assay: Compound was evaluated for diuretic activity in chimpanzee measured as clearance of […] and urate after intra venous administration of 5 mg/kg.; assay type: functional, Urine
Rattus norvegicus [32] = assay: Compound was evaluated for diuretic activity administered orally in female rats measured as milliequivalents of Na+x 100 / cage at 3 mg/kg; assay type: functional, Urine; conditions: route oral
Pan troglodytes [33] = assay: Compound was evaluated for diuretic activity in chimpanzee measured as increase in the number of microequivalents of Na+ /min at 5 mg/kg; assay type: functional, Urine
Pan troglodytes [34] = assay: Compound was evaluated for diuretic activity in chimpanzee measured as increase in volume of urine at 5 mg/kg; assay type: functional

CC1(c2ccccc2)Cc2cc(OCC(=O)O)c(Cl)c(Cl)c2C1=O (centres undefined) [INDACRINONE]
Urine volume [1]: 29 mL
Activity (Rattus norvegicus [2]): 32
Urine volume [3]: 28 mL
Increase in volume (Pan troglodytes [4]): 14.8 mL/min
Activity (Canis familiaris [5]): 26
Increase (Pan troglodytes [6]): 171
Urine volume (Canis familiaris [7]): 8 mL/min
Increase (Pan troglodytes [8]): 2624
Activity (Rattus norvegicus [9]): 85
Urine volume (Canis familiaris [10]): 267 mL
Delta C urate / delta C insulin (Pan troglodytes [11]): 0.332
Activity (Rattus norvegicus [12]): 189
Activity (Rattus norvegicus [13]): 97
Increase (Pan troglodytes [14]): 554
Activity (Canis familiaris [15]): 2.2
Activity (Canis familiaris [16]): 920 u equiv min-1
Activity (Rattus norvegicus [17]): 85
Activity (Canis familiaris [18]): 12
Activity (Rattus norvegicus [19]): 129
Urine volume [20]: 31 mL
PActivity (Rattus norvegicus [21]): 50
Activity (Rattus norvegicus [22]): 163
Activity (Canis familiaris [23]): 62 u equiv min-1
Increase (Pan troglodytes [24]): 53
Activity (Rattus norvegicus [25]): 303
Activity (Rattus norvegicus [26]): 223
Activity (Rattus norvegicus [27]): 61
Increase (Pan troglodytes [28]): 2383
Urine volume [29]: 35 mL
Activity (Canis familiaris [30]): 1010 u equiv min-1
Delta C urate / delta C insulin (Pan troglodytes [31]): 0.55
Activity (Rattus norvegicus [32]): 86
Increase (Pan troglodytes [33]): 409
Increase in volume (Pan troglodytes [34]): 3.6 mL/min
